Data published in patent US20240148747A1, “SMALL MOLECULE ACTIVATORS OF YAP TRANSCRIPTIONAL ACTIVITY FOR REGENERATIVE ORGAN REPAIR” (THE SCRIPPS RESEARCH INSTITUTE, priority 2021, published 2024).

Key:
[1] = system: YAP; assay: TEAD-LUC activation assay (293A-TEAD-LUC reporter); format: cell-based; conditions: Homo sapiens, Table 3; read-out: TEAD-LUC activation assay EC50
[2] = Cytotoxicity in the TEAD-LUC activation assay; conditions: human

Compound: CS(=O)(=O)c1ccc(-c2cc(C(=O)NCCCc3nccs3)no2)cc1 [Compound 39]
- EC50 [1]: > 20 µM
- IC50 [2]: > 20 µM

Compound: O=C(NCCCc1nccs1)c1cc(-c2ccc(-c3ccccc3)cc2)on1 [Compound 40]
- EC50 [1]: > 20 µM
- IC50 [2]: > 20 µM

Compound: COC(=O)N1CCN(CCCNC(=O)c2cc(-c3ccccc3)on2)CC1 [Compound 41]
- EC50 [1]: 3.38 µM
- IC50 [2]: > 20 µM

Compound: NS(=O)(=O)c1ccc(-c2cc(C(=O)NCCCc3nccs3)no2)cc1 [Compound 42]
- EC50 [1]: > 20 µM
- IC50 [2]: > 20 µM

Compound: CC(C)(CNC(=O)c1cc(-c2ccccc2)on1)C(F)(F)F [Compound 43]
- EC50 [1]: > 20 µM
- IC50 [2]: > 20 µM

Compound: CC(C)(NC(=O)c1cc(-c2ccccc2)on1)C(F)(F)F [Compound 44]
- EC50 [1]: > 20 µM
- IC50 [2]: > 20 µM

Compound: O=C(NC1CC(OC(F)F)C1)c1cc(-c2ccccc2)on1 (stereo not shown) [Compound 45]
- EC50 [1]: 3.17 µM
- IC50 [2]: > 20 µM

Compound: CC(F)(F)C(C)(C)NC(=O)c1cc(-c2ccccc2)on1 [Compound 46]
- EC50 [1]: > 20 µM
- IC50 [2]: > 20 µM

Compound: O=C(NCCc1ccc(Cl)c(F)c1)c1cc(-c2ccccc2)on1 [Compound 47]
- EC50 [1]: > 20 µM
- IC50 [2]: 15 µM

Compound: Cc1ccc(CCNC(=O)c2cc(-c3ccccc3)on2)cc1 [Compound 48]
- EC50 [1]: > 20 µM
- IC50 [2]: > 20 µM

Compound: O=C(NCCc1c[nH]c2ccccc12)c1cc(-c2ccccc2)on1 [Compound 49]
- EC50 [1]: > 20 µM
- IC50 [2]: > 20 µM

Compound: C[C@H](NC(=O)c1cc(-c2ccccc2)on1)c1ccccc1 [Compound 50]
- EC50 [1]: > 20 µM
- IC50 [2]: > 20 µM

Compound: CC(C)(C)SCCNC(=O)c1cc(-c2ccccc2)on1 [Compound 51]
- EC50 [1]: > 20 µM
- IC50 [2]: > 20 µM

Compound: CN(CCC#N)C(=O)c1cc(-c2ccccc2)on1 [Compound 52]
- EC50 [1]: > 20 µM
- IC50 [2]: > 20 µM

Compound: COc1cccc(CCNC(=O)c2cc(-c3ccccc3)on2)c1 [Compound 53]
- EC50 [1]: > 20 µM
- IC50 [2]: > 20 µM

Compound: O=C(NCc1cccs1)c1cc(-c2ccccc2)on1 [Compound 54]
- EC50 [1]: > 20 µM
- IC50 [2]: > 20 µM

Compound: O=C(NCCc1cccc(F)c1)c1cc(-c2ccccc2)on1 [Compound 55]
- EC50 [1]: > 20 µM
- IC50 [2]: > 20 µM

Compound: O=C(NC12CC(C(F)(F)F)(C1)C2)c1cc(-c2ccccc2)on1 [Compound 56]
- EC50 [1]: > 20 µM
- IC50 [2]: > 20 µM

Compound: O=C(NC12CC(F)(C1)C2)c1cc(-c2ccccc2)on1 [Compound 57]
- EC50 [1]: > 20 µM
- IC50 [2]: > 20 µM

Compound: CN(C)CCN(C)C(=O)c1cc(-c2ccccc2)on1 [Compound 58]
- EC50 [1]: > 20 µM
- IC50 [2]: > 20 µM

Compound: CC(C)(C)OC(=O)NCCNC(=O)c1cc(-c2ccccc2)on1 [Compound 59]
- EC50 [1]: 3.58 µM
- IC50 [2]: > 20 µM

Compound: CN(CC(F)F)C(=O)c1cc(-c2ccccc2)on1 [Compound 60]
- EC50 [1]: > 20 µM
- IC50 [2]: 12 µM

Compound: CSCCNC(=O)c1cc(-c2ccccc2)on1 [Compound 61]
- EC50 [1]: 2.36 µM
- IC50 [2]: > 20 µM

Compound: C[C@@H](NC(=O)c1cc(-c2ccccc2)on1)c1ccccc1 [Compound 62]
- EC50 [1]: > 20 µM
- IC50 [2]: > 20 µM

Compound: O=C(NCC(F)(F)F)c1cc(-c2ccccc2)on1 [Compound 63]
- EC50 [1]: 7.58 µM
- IC50 [2]: > 20 µM

Compound: CC(CNC(=O)c1cc(-c2ccccc2)on1)c1ccc(Cl)cc1 (stereo not shown) [Compound 64]
- EC50 [1]: > 20 µM
- IC50 [2]: > 20 µM

Compound: O=C(NCCc1ccc(Cl)c(Cl)c1)c1cc(-c2ccccc2)on1 [Compound 65]
- EC50 [1]: > 20 µM
- IC50 [2]: > 20 µM

Compound: CN(CCO)C(=O)c1cc(-c2ccccc2)on1 [Compound 66]
- EC50 [1]: > 20 µM
- IC50 [2]: > 20 µM

Compound: C[C@H](NC(=O)c1cc(-c2ccccc2)on1)c1ccc(Cl)cc1 [Compound 67]
- EC50 [1]: > 20 µM
- IC50 [2]: > 20 µM
